Measurements reported in patent publication US20240293439A1, “TREATMENT REGIMENS” (NuCana plc, priority 2017, published 2024).
Values joined by “and” are separate entries in the source; they are usually repeats but may differ in a detail not shown here. Equal values may be shown once. “Also recorded” adds a separate entry of the source.

Assays:
[1] = NuTide:301 Phase 1 study: pharmacokinetic analysis of NUC-3373 in blood plasma; type: in vivo; conditions: human, iv, patients with advanced solid tumors, 125-750 mg/m^2, 1:1 mixture of S and R epimers
Protocol: (§1) All patients have metastatic spread.
NUC-3373 is presented as a single dose intravenous injection in a clear vial containing 250 mg/ml NUC-3373 in a solution of dimethylacetamide (DMA) and normal saline in the ratio of 80:20. The product is a clear yellow solution, free from visible particles.
In the study all patients were treated with a 1:1 mixture of NUC-3373 S and R epimers.
Centrifuge the 4 ml blood sample at 1,200 g at 18° C. for 10 minutes. Using a sterile plastic pipette (pastette), remove the resulting plasma and transfer ˜1.0 ml plasma into each of 2 cryovials (2 ml).

[2] = NuTide:301 study: detection of toxic byproducts FBAL and dhFU by UPLC-MS/MS after NUC-3373 administration; type: in vivo, patients; conditions: at the doses studied
Protocol: as §1
(§2) Vortex-mix for 30 seconds. Leave sample on ice for 15 minutes.
UPLC-MS/MS was used to detect dhFU and FBAL

[3] = NuTide:301 clinical trial: occurrence of hand-foot syndrome; type: in vivo; conditions: 36 patients treated with NUC-3373, so far
Description: as §1

[4] = test system: thymidylate synthase (TS); assay: Intracellular dTMP, TS and dUMP levels in PBMCs of treated subjects (UPLC-MS, Western blot); type: in vivo, patients; conditions: for intracellular TS level and/or activity / intracellular dTMP level: cells (PBMCs) of treated subjects
Protocol: Remove sample from the centrifuge carefully.
as §2
UPLC-MS for was used to detect dTMP Western blot was used to detect TS.

[5] = formal dog toxicology studies; cited from earlier work
[6] = comparison value; cited from earlier work
[7] = patients treated with 5FU; cited from earlier work
[8] = biological target: T1, dihydropyrimidine dehydrogenase (DPD) (Homo sapiens, UniProt Q12882); conditions: catabolism in the liver; cited from earlier work
T1 construct: This is balanced by catabolism by dihydropyrimidine dehydrogenase (DPD) in the liver; host or cells: liver (of patients)
T1 sequence (Q12882 4-1025): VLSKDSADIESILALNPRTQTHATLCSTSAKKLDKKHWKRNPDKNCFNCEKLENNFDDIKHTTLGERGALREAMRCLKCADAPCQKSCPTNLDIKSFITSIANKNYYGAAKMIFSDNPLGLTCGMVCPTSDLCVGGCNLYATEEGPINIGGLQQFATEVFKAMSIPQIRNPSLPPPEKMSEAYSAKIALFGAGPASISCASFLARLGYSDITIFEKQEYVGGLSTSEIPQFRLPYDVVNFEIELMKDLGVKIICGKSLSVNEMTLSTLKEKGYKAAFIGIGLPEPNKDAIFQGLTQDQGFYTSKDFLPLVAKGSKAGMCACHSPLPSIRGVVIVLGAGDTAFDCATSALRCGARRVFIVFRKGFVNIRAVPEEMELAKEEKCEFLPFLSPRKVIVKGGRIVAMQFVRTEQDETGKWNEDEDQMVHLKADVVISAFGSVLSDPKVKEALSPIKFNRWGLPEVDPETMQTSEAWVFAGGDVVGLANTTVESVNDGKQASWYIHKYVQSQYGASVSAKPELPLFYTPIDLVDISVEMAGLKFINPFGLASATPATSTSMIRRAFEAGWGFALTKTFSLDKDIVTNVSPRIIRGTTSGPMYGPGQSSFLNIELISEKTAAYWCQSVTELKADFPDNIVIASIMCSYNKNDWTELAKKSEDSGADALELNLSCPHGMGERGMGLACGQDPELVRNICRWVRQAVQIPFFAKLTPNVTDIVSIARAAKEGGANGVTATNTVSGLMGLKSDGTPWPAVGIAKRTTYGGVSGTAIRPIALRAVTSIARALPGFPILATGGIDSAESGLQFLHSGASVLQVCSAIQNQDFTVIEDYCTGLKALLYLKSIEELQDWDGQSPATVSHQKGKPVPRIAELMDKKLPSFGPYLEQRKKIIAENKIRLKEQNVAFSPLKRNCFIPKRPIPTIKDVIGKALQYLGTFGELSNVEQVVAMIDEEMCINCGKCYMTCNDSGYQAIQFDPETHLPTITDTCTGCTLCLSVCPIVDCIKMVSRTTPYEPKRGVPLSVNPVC

[9] = in vivo
Protocol: The patients received NUC-3373, administered as a 30-minute to 2 hour intravenous injection on days 1, 8, 15 and 22 of a 28-day cycle regimen.
The cohorts treated to date received 125 mg/m^2, 250 mg/m^2, 500 mg/m^2 or 750 mg/m^2 NUC-3373 per administration.
Pharmacokinetic analysis of blood samples of the patients was then carried out.
Blood samples were collected on days 1 and 15 of a treatment cycle:
The blood samples should arrive in the lab within 2 hours of collection. Collect 8 ml of blood into CPT tubes (blood tubes should be centrifuged within 2 hours of blood collection). Remix the blood sample immediately prior to centrifugation by gently inverting the tube 8 to 10 times. Set centrifuge so that the start and finish is set to a slow acceleration (without break). Centrifuge at 18° C. for 20 minutes at 1,500 g. Remove sample from the centrifuge carefully. This will result in five layers: plasma (first); whitish cell (PBMC) layer [second]; polyester gel [third]; density solution [fourth] and, remaining granulocytes and RBCs [fifth]. Aspirate approximately half of the plasma without disturbing the cell layer. Collect the PBMC layer with a Pasteur Pipette and transfer to a 50 ml tube and add cold PBS (4° C.) to a final volume of 40 ml. Divide between two 50 ml tubes (20 ml per tube) and centrifuge for 5 minutes at 4° C. at 1,500 g. […]

Row | Compound | half-life [1] | dihydrofluorouracil (dhFU) detected following NUC-3373 administration [2] | α-fluoro-β-alanine (FBAL) detected following NUC-3373 administration [2] | patients who developed hand-foot syndrome [3] | intracellular TS level and/or activity [4] | intracellular dTMP level [4] | intracellular dUMP level ([4]; cells of treated subjects) | tolerability compared with 5FU [5] | plasma half-life of 5FU [6] | patients developing hand-foot syndrome [7] | fraction of 5-fluorouracil broken down by DPD [8] | half-life of intracellular FUDR monophosphate ([9]; human) | detectability of intracellular FUDR monophosphate at late time point [9]
1 | C[C@H](NP(=O)(OC[C@H]1O[C@@H](n2cc(F)c(=O)[nH]c2=O)CC1O)Oc1cccc2ccccc12)C(=O)OCc1ccccc1 (stereo partly drawn) [NUC-3373, 5-fluoro-2′-deoxyuridine-5′-O-[1-naphthyl (benzoxy-L-alaninyl)] phosphate] | 9.7 h | undetectable | undetectable; also recorded: very low levels | none | deplete | deplete | increased accumulation | significantly better tolerated than 5FU | – | – | – | – | –
2 | O=c1[nH]cc(F)c(=O)[nH]1 [5FU, 5-fluorouracil] | – | – | – | – | not observed | not observed | – | – | 8 to 14 min | 30-60% and 40-60% | More than 85% | – | –
3 | O=c1[nH]c(=O)n([C@H]2C[C@H](O)[C@@H](COP(=O)(O)O)O2)cc1F [FUDR monophosphate] | – | – | – | – | – | – | – | – | – | – | – | 14.9 h | still detectable
